The text below walks through data of patent US20050171005A1, “Methods and compositions for modulating beta-catenin phosphorylation” (priority 2002, published 2005).

Each structure is given as a SMILES string.

One assay deals with endogenous β-catenin. The assay is described as follows: Phosphorylation of endogenous β-catenin in proteasome-inhibited HeLa cells with kinase inhibitors. It counts as cell-based. Particulars: CKI-7 100 μM; for S33 phosphorylation of endogenous β-catenin: LiCl 40 mM. How it is done:
FIG. 5d: Effects of specific kinase inhibitors on the phosphorylation of endogenous β-catenin at S41,45 and S33 in HeLa cells. CKI-7 was used at 100 μM, H89 at 5 μM and LiCl at 40 mM. β-catenin was detected with anti-β-catenin antibody, or anti-phospho-p-catenin antibodies.
(§1) 293T cells were transiently transfected using the calcium phosphate procedure. The following expression vectors were used: Myc- or Flag-tagged β-catenin (0.5 μg) (a human β-catenin clone obtained from R. Grosschedl), Flag- or Myc-tagged axin (2 μg) (mouse cDNA provided by F. Costantini), HA-GSK3β or Flag-GSK3β (3.5 μg) (a rabbit clone obtained from J R Woodgett) [Woodgett, J. R. (1990) EMBO J 9: 2431-2438]. β-catenin mutants include DP, (S33, S37, T40, S45, S47 substituted to alanine) single point mutants (S29F, S33Y, S37A, T41A, S45F) and 45PKA (T41S, T42R, A43R). Additional vectors: Flag-WD, a dominant negative β-TrCP fragment (ΔF-box) [Yaron, A. et al. (1998) Nature 396: 590-594]; Flag-Dvl-1 (a mouse cDNA clone obtained from S-I Yanagawa) [Lee, J. S. et al. (1999) J Biol Chem 274: 21464-21470]; WT and dominant negative Xenopus CKIε (XCKIε-D128N) (provided by T. Shcwarz-Romond) [McKay, R. M. et al. (2001) Dev Biol 235: 378-387]. 24-48 hr after transfection, cells were harvested and processed for the various experiments. MG-132 (Sigma) was used at 20 μM for 5 hr; LiCl (40 mM) was added for 6 hr, and CKI-7 (100 μM) for 16 hr prior to harvesting. β-catenin, axin or GSK-30 in cell lysates were detected using anti-Myc (Ab-1, Oncogenes Research Products, 2 μg/ml), anti-Flag (M2, Sigma, 1 μg/ml) and anti-HA (12CA5 ascites fluid; 1:5000) antibodies, respectively. GFP expression was monitored with anti-GFP antibody (JL-8, Clontech, 1 μg/ml). In some experiments (FIG. 4) GSK-3β was detected using anti-GSK-3β monoclonal antibodies (clone 7, Transduction Laboratories, 0.1 μg/ml). Endogenous and exogenous β-catenin (FIGS. 5d and 6a) were detected with anti-β-catenin antibodies (clone 14, Transduction Laboratories) (0.25 μg/ml).
Western blot and mass spectrometry (MS). Three different commercial anti-β-catenin phospho-peptide antibodies were used: i) Anti-phospho-Thr41/Ser 45 (Cell Signaling Technology), a polyclonal antibody specific for both pT41 and pS45 (otp41,45). ii) Anti-phospho-Ser33/37/Thr41 (Cell Signaling Technology), a polyclonal antibody recognizing pS33 (αp33). […] Antibody specificities were determined by phosphopeptide inhibition studies. […]
In another set of experiments the in vivo role of CKI in S45 phosphorylation was analyzed, using two dominant negative CKIε constructs (dnXCKIε K85R and D128N) [McKay et al. (2001) id ibid.] and a specific CKI inhibitor (CKI-7) [Chijiwa, T. et al. (1989) J Biol Chem 264: 4924-4927]. […]

The test system of assay [1] is β-catenin. It counts as cell-based, human. Conditions: 293 cells. How it is done: as §1
Western blot and mass spectrometry (MS). Three different commercial anti-β-catenin phospho-peptide antibodies were used: i) Anti-phospho-Thr41/Ser 45 (Cell Signaling Technology), a polyclonal antibody specific for both pT41 and pS45 (otp41,45). ii) Anti-phospho-Ser33/37/Thr41 (Cell Signaling Technology), a polyclonal antibody recognizing pS33 (αp33). These two polyclonal antibodies were used at a 1:1000 dilution, according to the manufacturer's instructions. iii) anti-phospho-Ser 33/37 (BC-22, Sigma), a monoclonal antibody specific for pS37 (used as ascites fluid at a 1:3000 dilution; αp37). Antibody specificities were determined by phosphopeptide inhibition studies. D^32S(PO4)GIHSGATTTAPS^45 abolished the αp33, but not the αp37 signal; D^32SGIHS(PO4)GATTTAPS^45 blocked the αp37 but not the αp33 signal. […] Proteins for MS analysis were immunopurified by M2 Flag-affinity beads (Sigma), separated by SDS-PAGE, Coomassie stained and the β-catenin bands were in-gel digested with endoproteinase Asp-N. The resulting peptides were desalted on small columns, eluted with 20% MeOH, 5% HCOOH, and analyzed by nanoelectrospray mass spectrometry [Yaron et al. (1998) id ibid.], using a quadrupole time-of-flight mass spectrometer (PE-Sciex, Canada).
GSK-3β is traditionally known to target the phosphorylation of +4P-primed substrates [Frame, S. et al. (2001) Mol Cell 7: 1321-1327], a specificity supported by recent structural studies of the enzyme [Dajani, R. et al (2001) Cell 105: 721-732]. The fact that the S45 phosphorylation site is not preceded by a +4P priming site led to the proposition that the molecular complex of axin and GSK-3β is capable of bypassing the priming requirement of the uncomplexed enzyme [Cohen and Frame (2001) id ibid.]. To assess the contribution of GSK-30 in axin-mediated S45 phosphorylation, two types of experiments were carried out. In the first set, 293 cells were incubated prior to harvesting with LiCl, a GSK-3β inhibitor capable of mimicking a Wnt effect [Klein, P. S. and D. A. Melton (1996) Proc Natl Acad Sci USA 93: 8455-8459; Stambolic, V. et al. (1996) Curr Biol 6: 1664-1668].

In another assay the test system is LB33B1 cells. The assay is described as follows: LB33B1 melanoma cell growth, live cell count 24 hours post treatment. Type of assay: cell-based. Conditions: increasing concentrations of CKI7, live cells counted 24 hours post treatment. How it is done:
FIG. 10d: Blocking β-catenin phosphorylation in a melanoma cell line affects cell growth. LB33B1 cells were treated with increasing concentrations of the S45 phosphorylation inhibitor CKI7 and live cells were counted 24 hours post treatment. • Abbreviations: U.T., untreated or untransfected; Rel. ce. numb. 24 hrs. po. treat., relative cell numbers 24 hours post-treatment.
(§2) The highly metastatic melanoma cell line LB33B1 (B1) is a derivative of the low grade malignant LB33A1 (A1) cells [Ikeda H. et al., (1997) Immunity 6(2): 199-208]. Both cell lines harbor a similar high content of β-catenin, irrespective of proteasome inhibition, yet the B1 β-catenin is phosphorylated (FIG. 10b). […] To assess the contribution of phosphorylated versus non-phosphorylated β-catenin to the MITF-transcriptional activity, reporter-transfected B1 cells were treated with LiCl, which suppresses GSK3 phosphorylation, or cotrasfected with Dvl-ΔPDZ, which cannot cooperate with Frat1, yet suppresses S45 phosphorylation. […] Abrogating β-catenin phosphorylation in melanoma cells may compromise their growth and indeed, treatment of B1 melanoma cells with CKI7, a small-molecule specific CKI inhibitor, slowed their proliferation (FIG. 10d) along with suppressing the phosphorylation of β-catenin (data not shown).

Assay [2] concerns β-catenin. In words: β-catenin phosphorylation in B1 melanoma cells. Type of assay: cell-based. Particulars: data not shown. The procedure:
as §2

Another assay has as its system MITF-M promoter. In words: pGL3-MITF/M luciferase reporter assay in LB33B1 melanoma cells. It counts as cell-based. Particulars: reporter-transfected B1 (LB33B1) cells; 20 mM LiCl for 24 hours. The procedure: FIG. 10c: MITF transcriptional activity requires β-catenin phosphorylation. The two related melanoma cell lines LB33A1 and LB33B1 were transfected with the pGL3-MITF/M luciferase reporter plasmid [Takeda et al. (2000) J Biol Chem 275: 14013-6] alone or together with DvlΔPDZ expression plasmid. 24 hours after transfection, one sample of cells was treated with 20 mM LiCl for 24 hours, as indicated. Cells were harvested and their lysate luciferase activity was determined using Promega's Luciferase Assay System. MITF-M transcriptional activity is expressed in Relative Luciferase Units (RLU). A TCF mutant-site reporter (pGL3-MITF/M195.3) was used to control TCF-independent transcription.
Cells were transfected with the TOPFLASH or pGL3-MITF/M luciferase reporter plasmids [Korinek et al., (1997) Science, 275: 1752-3; Takeda et al. (2000) J. Biol. Chem. 275: 14013-6] and the relevant expression plasmid combinations. 24 hours after transfection the cells were harvested. Luciferase activity was determined in the cells' lysate using Promega's Luciferase Assay System. The transcription activity is expressed in Relative Luciferase Units (RLU). TCF mutant-site reporters (FOPFLASH and pGL3-MITF/M195.3) were used to control TCF-independent transcriptional transactivation. […]

[3] abbreviates: MG-132 treated, LiCl 40 mM for 6 hr.

As for `NCCNS(=O)(=O)c1ccc(Cl)c2ccncc12` [CKI-7], in the assay with endogenous β-catenin, the “S45/T41 phosphorylation of endogenous β-catenin” value is on record as “suppressed” and the “S33 phosphorylation of endogenous β-catenin” value is listed as “suppressed”. The “axin-induced p45 signal of wt β-catenin” value with β-catenin [1] (CKI-7 100 μM for 16 hr) is “diminished”. Also, the “constitutive S45 phosphorylation of 45PKA β-catenin” value in the assay with β-catenin [1] (CKI-7 100 μM for 16 hr, H89 data not shown) is “did not affect”. For the same molecule, in the assay with LB33B1 cells, the “proliferation of B1 melanoma cells” value was “slowed”. The “phosphorylation of β-catenin” value in the assay with β-catenin [2] is recorded as “suppressing”.

Regarding `[Cl-].[Li+]` [LiCl], the “S33 phosphorylation of endogenous β-catenin” value in the assay with endogenous β-catenin is given as “exclusively blocked”. Besides, the “S45 phosphorylation of T41A mutated β-catenin” value with β-catenin [1] (MG-132 treated, LiCl 40 mM) is “no effect”. Also, in the assay on β-catenin [1] (setting [3]), the “axin-induced S33/37 phosphorylation of wt β-catenin” value was “abolished” and the “axin-induced T41/S45 phosphorylation signal of wt β-catenin” value is recorded as “minimally affected”. The “MS analysis of S45 peptides, treated versus non-treated cells” value in the assay with β-catenin [1] (data not shown) is reported as “no difference”. In addition, in the assay on MITF-M promoter, the MITF promoter activity result is “inhibition”.
